Legend:
Recombinant human DDR1 = molecular target: T1, Recombinant human DDR1 (Homo sapiens, UniProt Q08345); experiment: LanthaScreen Eu Kinase Binding Assay, DDR1; details: recombinant human DDR1 (2.5 nM; aa440-876, GST tag), Kinase Tracer 178 5 nM, time-resolved fluorescence, at least two independent replicates; read-out: DDR1 pIC50 (converted)
T1 construct: Recombinant human DDR1 (2.5 nM; aa440-876 containing a GST tag)
Protocol: (§1) DDR1 and DDR2 Biochemical Assay Method
(§2) The capacity of compounds to bind to DDR1 and DDR2 was quantified using a LanthaScreen Eu Kinase Binding Assay. Recombinant human DDR1 (2.5 nM; aa440-876 containing a GST tag) and DDR2 (1.75 nM; aa427-855 containing a GST tag) were diluted in assay buffer (50 mM HEPES pH7.3, 10 mM MgCl2, 1 mM EGTA and 0.01% Tween) with various concentrations of compound in a 384-well plate and a volume of 5 uL. After a 30-minute incubation at room temperature, 2.5 uL of Eu-anti GST antibody (diluted to 1 nM in assay buffer) plus Kinase Tracer 178 (diluted in assay buffer to 5 nM for DDR1 and 10 nM for DDR2) were added to the plate. Following 60-minute incubation at room temperature, time-resolved fluorescence was measured on a BMG Labtech PHERAstar plate reader. DMSO (1%) and reference compound (1 μM) were used to generate the Max and Min assay signals, respectively. Data was analysed using a four-parameter logistic model to calculate IC50 values, with at least two independent replicates were performed for each compound.

Recombinant human DDR2 = molecular target: T2, Recombinant human DDR2 (Homo sapiens, UniProt Q16832); experiment: LanthaScreen Eu Kinase Binding Assay, DDR2; details: recombinant human DDR2 (1.75 nM; aa427-855, GST tag), Kinase Tracer 178 10 nM, time-resolved fluorescence, at least two independent replicates; read-out: DDR2 pIC50 (converted)
T2 construct: DDR2 (1.75 nM; aa427-855 containing a GST tag)
T2 sequence (Q16832 427-855): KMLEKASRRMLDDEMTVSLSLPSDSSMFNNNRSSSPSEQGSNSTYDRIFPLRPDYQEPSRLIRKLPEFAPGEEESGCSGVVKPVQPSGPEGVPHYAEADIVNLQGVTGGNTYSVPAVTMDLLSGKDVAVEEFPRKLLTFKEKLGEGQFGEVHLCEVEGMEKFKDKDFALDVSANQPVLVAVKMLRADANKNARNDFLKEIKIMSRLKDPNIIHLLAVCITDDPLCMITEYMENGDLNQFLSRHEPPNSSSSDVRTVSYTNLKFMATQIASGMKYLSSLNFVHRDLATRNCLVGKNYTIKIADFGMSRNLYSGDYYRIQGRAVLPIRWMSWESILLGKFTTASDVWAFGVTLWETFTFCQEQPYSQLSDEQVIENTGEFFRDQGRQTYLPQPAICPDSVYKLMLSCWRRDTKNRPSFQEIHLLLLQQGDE
Protocol: as §1, §2

T1 sequence (Q08345 440-876 isoform Q08345-2): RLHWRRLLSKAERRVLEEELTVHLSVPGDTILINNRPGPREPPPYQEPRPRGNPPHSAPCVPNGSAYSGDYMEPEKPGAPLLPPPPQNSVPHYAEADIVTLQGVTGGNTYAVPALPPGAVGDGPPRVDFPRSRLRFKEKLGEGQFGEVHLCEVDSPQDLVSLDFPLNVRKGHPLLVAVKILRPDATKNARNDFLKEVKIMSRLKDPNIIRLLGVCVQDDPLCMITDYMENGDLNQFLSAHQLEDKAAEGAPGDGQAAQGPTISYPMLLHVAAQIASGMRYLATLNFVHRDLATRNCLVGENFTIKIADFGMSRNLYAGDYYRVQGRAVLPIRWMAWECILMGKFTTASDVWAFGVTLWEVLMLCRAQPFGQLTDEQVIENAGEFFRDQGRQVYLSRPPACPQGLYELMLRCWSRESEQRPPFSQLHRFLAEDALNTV

| SMILES | IC50 (Recombinant human DDR1) [nM] | IC50 (Recombinant human DDR2) [nM] |
| --- | --- | --- |
| CN(C)CCc1ccc(NC(=O)Cn2ccc3cccc(Nc4ccc5c(cnn5C)c4)c3c2=O)cc1C(F)(F)F [Example 133, N-[4-[(dimethylamino)ethyl]-3-(trifluoromethyl)phenyl]-2-[8-[(1-methylindazol-5-yl)amino]-1-oxo-2-isoquinolyl]acetamide] | 10 to 100 | 100 to 1000 |
| Cn1ncc2cc(Nc3cccc4ccn(CC(=O)N5CCOCC5)c(=O)c34)ccc21 [Example 11] | 100 to 1000 | 100 to 1000 |
| Cn1ncc2cc(Nc3cccc4ccn(CC(=O)Nc5ccon5)c(=O)c34)ccc21 [Example 74, N-isoxazol-3-yl-2-[8-[(1-methylindazol-5-yl)amino]-1-oxo-2-isoquinolyl]acetamide] | 10 to 100 | 100 to 1000 |
| CC[C@H](NC(=O)Cn1ccc2cccc(Nc3ccc4c(cnn4C)c3)c2c1=O)C(F)(F)F [Example 45, 2-[8-[(1-methylindazol-5-yl)amino]-1-oxo-2-isoquinolyl]-N-[(1S)-1-(trifluoromethyl)propyl]acetamide] | 10 to 100 | 10 to 100 |
| Cn1ncc2cc(Nc3cccc4ccn(CC(=O)Nc5cncc(C(F)(F)F)c5)c(=O)c34)ccc21 [Example 31, 2-[8-[(1-methylindazol-5-yl)amino]-1-oxo-2-isoquinolyl]-N-[5-(trifluromethyl)-3-pyridyl]acetamide] | < 10 | < 10 |
| CC(C)[C@H](NC(=O)Cn1ccc2cccc(Nc3ccc4c(cnn4C)c3)c2c1=O)C(F)(F)F [Example 46, 2-[8-[(1-methylindazol-5-yl)amino]-1-oxo-2-isoquinolyl]-N-[(S)-2-methyl-1-(trifluoromethyl)propyl]acetamide] | 10 to 100 | 10 to 100 |
| CN1CCC(NC(=O)Cn2ccc3cccc(Nc4ccc5c(cnn5C)c4)c3c2=O)CC1 [Example 18, 2-[8-[(1-methylindazol-5-y)amino]-1-oxo-2-isoquinolyl]-N-(1-methyl-4-piperidyl)acetamide] | ≥ 1000 | ≥ 1000 |
| Cn1ncc2cc(Nc3cccc4ccn(CC(=O)NC5CCOCC5)c(=O)c34)ccc21 [Example 15, 2-[8-[(1-methylindazol-5-yl)amino]-1-oxo-2-isoquinolyl]-N-tetrahydropyran-4-yl-acetamide] | 100 to 1000 | ≥ 1000 |
| Cn1ncc2cc(Nc3cccc4ccn(CC(=O)Nc5cncnc5)c(=O)c34)ccc21 [Example 25, 2-[8-[(1-methylindazol-5-yl)amino]-1-oxo-2-isoquinolyl]-N-pyrimidin-5-yl-acetamide] | 100 to 1000 | ≥ 1000 |
| Cn1ccnc1NC(=O)Cn1ccc2cccc(Nc3ccc4c(cnn4C)c3)c2c1=O [Example 77, N-(1-methylimidazol-2-yl)-2-[8-[(1-methylindazol-5-yl)amino]-1-oxo-2-isoquinolyl]acetamide] | ≥ 1000 | ≥ 1000 |
| Cn1ncc2cc(Nc3cccc4ccn(CC(=O)NC(c5ccccc5)C(F)(F)F)c(=O)c34)ccc21 (stereo not drawn) [Example 35, 2-[8-[(1-methylindazol-5-yl)amino]-1-oxo-2-isoquinolyl]-N-(2,2,2-trifluoro-1-phenyl-ethyl)acetamide] | 10 to 100 | 100 to 1000 |
| C[C@H](NC(=O)Cn1ccc2cccc(Nc3ccc4c(cnn4C)c3)c2c1=O)C(F)(F)F [Example 19, 2-[8-[(1-methylindazol-5-yl)amino]-1-oxo-2-isoquinolyl]-N-[(1S)-2,2,2-trifluoro-1-methyl-ethyl]acetamide] | < 10 | 10 to 100 |
| Cn1ncc2cc(Nc3cccc4ccn(CC(=O)Nc5cnoc5)c(=O)c34)ccc21 [Example 37, N-isoxazol-4-yl-2-[8-[(1-methylindazol-5-yl)amino]-1-oxo-2-isoquinolyl]acetamide] | < 10 | 10 to 100 |
| CCNC(=O)Cn1ccc2cccc(Nc3ccc4c(cnn4C)c3)c2c1=O [Example 14, N-ethyl-2-[8-[(1-methylindazol-5-yl)amino]-1-oxo-2-isoquinolyl]acetamide] | 100 to 1000 | ≥ 1000 |
| Cn1nccc1NC(=O)Cn1ccc2cccc(Nc3ccc4c(cnn4C)c3)c2c1=O [Example 36, 2-[8-[(1-methylindazol-5-yl)amino]-1-oxo-2-isoquinolyl]-N-(2-methylpyrazol-3-yl)acetamide] | 10 to 100 | 100 to 1000 |
| Cn1ncc2cc(Nc3cccc4ccn(CC(=O)NC(C5CC5)C(F)(F)F)c(=O)c34)ccc21 (stereo not drawn) [Example 33, N-(1-cyclopropyl-2,2,2-trifluoro-ethly)-2-[8-[(1-methylindazol-5-yl)amino]-1-oxo-2-isoquinolyl]acetamide] | 10 to 100 | 100 to 1000 |
| Cn1ncc2cc(Nc3cccc4ccn(CC(=O)NCC(C)(C)O)c(=O)c34)ccc21 [Example 54, N-(2-hydroxy-2-methyl-propyl)-2-[8-[(1-methylindazol-5-yl)amino]-1-oxo-2-isoquinolyl]acetamide] | 100 to 1000 | ≥ 1000 |
| CN(C)Cc1ccc(NC(=O)Cn2ccc3cccc(Nc4ccc5c(cnn5C)c4)c3c2=O)cc1C(F)(F)F [Example 112, N-[4-[(dimethylamino)methyl]-3-(trifluoromethyl)phenyl]-2-[8-[(1-methylindazol-5-yl)amino]-1-oxo-2-isoquinolyl]acetamide] | < 10 | 10 to 100 |
| Cn1ncc2cc(Nc3cccc4ccn(CC(=O)N5CCC[C@H]5C(F)F)c(=O)c34)ccc21 [Example 131, 2-[2-[(2S)-2-(difluoromethyl)pyrrolidin-1-yl]-2-oxo-ethyl]-8-[(1-methylindazol-5-yl)amino]isoquinolin-1-one] | < 10 | 10 to 100 |
| CC(NC(=O)Cn1ccc2cccc(Nc3ccc4c(cnn4C)c3)c2c1=O)C(F)(F)F (stereo not drawn) [Example 12, 2-[8-[(1-methylindazol-5-y)amino]-1-oxo-2-isoquinolyl]-N-(2,2,2-trifluoro-1-methyl-ethyl)acetamide] | 10 to 100 | 10 to 100 |
| CN(C)Cc1cc(NC(=O)Cn2ccc3cccc(Nc4ccc5c(cnn5C)c4)c3c2=O)cc(C(F)(F)F)c1 [Example 154, N-[3-[(dimethylamino)methyl]-5-(trifluoromethyl)phenyl]-2-[8-[(1-methylindazol-5-yl)amino]-1-oxo-2-isoquinolyl]acetamide] | < 10 | 10 to 100 |
| Cn1ccc(NC(=O)Cn2ccc3cccc(Nc4ccc5c(cnn5C)c4)c3c2=O)n1 [Example 34, 2-[8-[(1-methylindazol-5-yl)amino]-1-oxo-2-isoquinolyl]-N-(1-methylpyrazol-3-yl)acetamide] | 100 to 1000 | ≥ 1000 |
| Cn1ncc2cc(Nc3cccc4ccn(CC(=O)Nc5cnoc5)c(=O)c34)cnc21 [Example 101] | 10 to 100 | 100 to 1000 |
| C[C@@H](NC(=O)Cn1ccc2cccc(Nc3ccc4c(cnn4C)c3)c2c1=O)C(F)(F)F [Example 20, 2-[8-[(1-methylindazol-5-yl)amino]-1-oxo-2-isoquinolyl]-N-[(1R)-2,2,2-trifluoro-1-methyl-ethyl]acetamide] | 100 to 1000 | 100 to 1000 |
| Cn1ncc2cc(Nc3cccc4ccn(CC(=O)Nc5ccc(C(F)(F)F)cc5)c(=O)c34)ccc21 [Example 30, 2-[8-[(1-methylindazol-5-yl)amino]-1-oxo-2-isoquinolyl]-N-[4-(trifluoromethyl)phenyl]acetamide] | < 10 | ≥ 1000 |
| CC(=O)C1CCCCN1C(=O)Cn1ccc2cccc(Nc3ccc4c(cnn4C)c3)c2c1=O (stereo not drawn) [Example 141, 2-[2-(2-acetyl-1-piperidyl)-2-oxoethyl]-8-[(1-methylindazol-5-yl)amino]isoquinolin-1-one] | 100 to 1000 | ≥ 1000 |
| CC(C)CNC(=O)Cn1ccc2cccc(Nc3ccc4c(cnn4C)c3)c2c1=O [Example 9, N-isobutyl-2-[8-[(1-methylindazol-5-yl)amino]-1-oxo-2-isoquinolyl]acetamide] | 10 to 100 | 100 to 1000 |
| Cn1ncc2cc(Nc3cccc4ccn(CC(=O)NCC(F)F)c(=O)c34)ccc21 [Example 10] | 10 to 100 | 100 to 1000 |
| CC(=O)C1CCN(C(=O)Cn2ccc3cccc(Nc4ccc5c(cnn5C)c4)c3c2=O)CC1 [Example 80, 2-[2-(4-acetyl-1-piperidyl)-2-oxo-ethyl]-8-[(1-methylindazol-5-yl)amino]isoquinolin-1-one] | 100 to 1000 | ≥ 1000 |
| Cn1ncc2cc(Nc3cccc4ccn(CC(=O)NCC5CC5)c(=O)c34)ccc21 [Example 16] | 10 to 100 | 100 to 1000 |

— patent US12692247B2, “Phenyl- and pyridopyrazole derivatives as inhibitors of DDR1” (Redx Pharma Limited, priority 2021, dated 2026)
